Assay results published in patent publication US6586188B1, “Method for identification of compounds that bind to β-tubulin and stimulate insulin secretion” (Biovitrum AB, priority 1999, dated 2003).

Legend:
[1] = test system: β-cells; test: Staining of microtubules with an antibody against tubulin in pretreated β-cells; type: cell-based, ob/ob mice; settings: 5 μM nocodazole or 25 μM Taxol
Description: (§1) Staining of microtubules with an antibody against tubulin in β-cells pretreated with vehicle, nocodazole or taxol (a). Data are representative of three determinations. Effect of nocodazole (b) and taxol (c) on the dynamics of insulin release from column perifused β-cells. Cells were incubated with 5 μM nocodazole for 30 min or 25 μM taxol for 15 min prior to starting perifusion of the cells. Taxol was present during the whole experiment. The control cells were incubated with their respective vehicle solutions. Protocols were initiated at the times indicated in the figure with either 1 μM glibenclamide or 15 mM glucose. The data represents the mean+SEM of four experiments.
(§2) Cells were incubated with 5 μM nocodazole for 30 min or 25 μM taxol for 15 min prior to starting perifusion of the cells. Taxol was present during the whole experiment. The control cells were incubated with their respective vehicle solutions. Protocols were initiated at the times indicated in FIG. 3 with either 1 μM glibenclamide or 15 mM glucose. The data represent the mean±SEM of four experiments.

[2] = test system: β-cells; test: Dynamics of insulin release from column perifused β-cells; type: cell-based, ob/ob mice; settings: for basal level of insulin secretion: 5 μM nocodazole (30 min) or 25 μM Taxol (15 min and throughout); for increase in insulin secretion: 1 μM glibenclamide in the presence of 5 μM nocodazole
Description: as §1
(§3) Ob/ob mice were obtained from a locally bread colony at the animal facility within the Karolinska Institute, Stockholm, Sweden. The ob/ob mice were starved overnight. The animals were decapitated, the pancreas was excised from the abdominal cavity and pancreatic β-cells were isolated after collagenase digestion as previously described (Lemmark, A, (1974) Diabetologica 10, 431-438; Nilsson, T. et al. (1987) Biochem. J. 248, 329-336). The cells were kept overnight in RPMI 1640 medium supplemented with 11 mM glucose, 10% FCS, 100 μg/ml streptomycin and 100 IU/ml penicillin at 37° C. in a humidified atmosphere of 5% CO2 in air.
The basal medium used for isolation and for conducting the experiments was a buffer containing 125 mM NaCl; 5.9 mM KCl; 1.3 mM CaCl2; 1.2 mM MgCl2; and 25 mM HEPES (pH 7.4). BSA was added to the medium at the concentration of 1 mg/ml. The dynamics of insulin release were studied by perifusing β-cell aggregates mixed with Bio-Gel P4 polyacrylamide beads (BioRad, Richmond, Calif.), in a 0.5 ml column at 37° C. (Kanatsuna, T. et al. (1981) Diabetes 30, 231-234). The flow rate was 0.2 ml/min. Two-min fractions were collected and insulin content was analyzed by radioimmunoassay.
as §2

[3] = test system: isolated rat islets of Langerhans; settings: cited from earlier work
[4] = test system: Tubulin from bovine brain; test: Tubulin polymerization in vitro (optical density at 340 nm); type: biochemical; settings: 0.17 mM glibenclamide, 2.9 mg/ml tubulin, versus DMSO control
Description: Glibenclamide accelerates microtubule growth. (a): Experimental data showing the increase in optical density at 340 nm, resulting from tubulin polymerization in vitro, as a function of time. Microtubule growth was induced by increasing the temperature from 15° C. (at t=0) to 35° C. The concentration of bovine brain tubulin was 2.9 mg/ml and the buffer solution contain 80 mM Pipes, 1 mM MgCl2, 1 mM EGTA, 1 mM GTP, 2.1% DMSO and 10% glycerol at pH 6.9. The black symbols indicate the presence of 0.17 mM glibenclamide whereas the gray symbols represent the controls in its absence. The polymerization was followed simultaneously for one pair at the time, with each pair being a glibenclamide sample and a control, to ensure comparisons are made on identical protein samples. The data presented is representative of four experiments. (b): The rate of tubulin polymerization as measured by the change in OD with time (dOD/dt) as a function of time. The experimental conditions were the same as in (a). Black lines indicate the presence of glibenclamide and gray lines its absence. […]
Tubulin from bovine brain was purchased from Cytoskeleton Inc. in aliquots of 1 mg lyophilized protein. […] The experiment was then started by altering the multicell holder set temperature to 35° C. and the absorbance at 340 nm was measured as a function of time. […]

[5] = test system: β-tubulin; test: Confocal microscopy co-localization of BODIPY FL glibenclamide and anti β-tubulin antibody in β-cells; type: cell-based, ob/ob mice; settings: primary cultures of β-cells, BODIPY FL glibenclamide staining
Description: Further analysis of sulfonylureas binding to β-tubulin was performed using confocal microscopy in primary cultures of β-cells obtained from ob/ob mice. Isolated β-cells in culture were incubated in the presence or absence of different agonists for 3 min at 23° C. The incubation time was terminated by fixation of the cells with 4% formaldehyde in PBS for 10 min at room temperature. After rinsing twice with PBS, cells were incubated in acetone at −20° C. for 5 min and then quenched with PBS containing 1% BSA for 30 min. BODIPY® FL glibenclamide was purchased from Molecular Probes, Inc., Catalog Number B-7439; http://www.probes.com). The green-fluorescent BODIPY® FL fluorophore has excitation/emission maxima ˜503/512 nm. Staining with BODIPY® FL glibenclamide, primary anti β-tubulin antibody (Amersham, UK) and secondary Texas Red®-conjugated antibody (Molecular Probes Inc.) was performed at room temperature for 1 h. After rinsing with PBS the coverslips were mounted (SlowFade light, Molecular Probes, Eugene, Oreg.) and examined using a confocal laser scanning microscope (Leica TCS NT, Leica Lasertechnik GmbH, Heidelberg, Germany). Excitation wavelengths 488 nm and 568 nm were used. The confocal microscope was equipped with an Ar/Kr laser, a double dicroic mirror for rhodamine/fluorescein and a 63× lens (Leica PL APO 63×/1.32×0.6 oil). […]

[6] = test system: pancreatic β-cells; test: Binding of [125I]glibenclamide to intact β-cells and subcellular fractions, UV cross-linking, SDS-PAGE, autoradiography; set-up: species or system ob/ob mice
From the text: as §3
Binding of [^125I]glibenclamide (Amersham, UK) was performed in intact β-cells and in subcellular fraction derived therefrom. Isolated pancreatic islets from ob/ob mice (250-300) were homogenized in 300 μl buffer containing (in mM): HEPES 20, MgCl2 1, EGTA 1, EDTA 1, PMSF 1, protease inhibitors (leupeptin, aprotinin, pepstatin, antipain) 0.5 μg/ml in Eppendorf tubes using a motor pestle homogenizer. The homogenized material was centrifuged (800×g for 10 min) and the resultant pellet was resuspended again in 200 μl of homogenization buffer and centrifuged as above. […] This material was further analyzed by SDS-PAGE separation and autoradiography (FIG. 1b). […]

Q: For `CC(=O)O[C@H]1C(=O)[C@@]2(C)[C@H]([C@H](OC(=O)c3ccccc3)[C@]3(O)C[C@H](OC(=O)[C@H](O)[C@@H](NC(=O)c4ccccc4)c4ccccc4)C(C)=C1C3(C)C)[C@]1(OC(C)=O)CO[C@@H]1C[C@@H]2O` [Taxol], which “changes in microtubule organization” value [1] is on record?
A: nor did they induce visible changes

Q: And the “basal level of insulin secretion” value [2]?
A: did not affect

Q: What about the “effect on increase in insulin secretion elicited by 1 μM glibenclamide” value ([2]; 25 μM Taxol, 3 mM and 15 mM glucose) of the same compound?
A: prevented the increase

Q: And the “effect on glucose-stimulated insulin secretion” value [3]?
A: inhibit

Q: For `COc1ccc(Cl)cc1C(=O)NCCc1ccc(S(=O)(=O)NC(=O)NC2CCCCC2)cc1` [glibenclamide, 5-Chloro-N-[2-[4-[[[(cyclohexylamino)carbonyl]amino]sulfonyl]phenyl]ethyl]-2-methoxybenzamide], which “rate of change in absorbance (rate of tubulin polymerization)” value ([4]; 15° C. to 35° C.) is on record?
A: faster

Q: What about the “extent of tubulin polymerization” value [4] of the same compound?
A: not a strong influence

Q: What about the “increase in insulin secretion” value ([2]; 3 mM glucose) of the same compound?
A: 5 fold

Q: And the “increase in insulin secretion” value ([2]; 15 mM glucose)?
A: one-fold increase

Q: And the “co-localization with β-tubulin” value [5]?
A: indicated an interaction between glibenclamide and β-tubulin

Q: What about the “proteins associated with binding, cytosolic fraction” value [6] of the same compound?
A: associated with two proteins having a molecular mass of approximately 47 and 65 kDa

Q: For `COC(=O)Nc1nc2ccc(C(=O)c3cccs3)cc2[nH]1` [nocodazole], which “changes in microtubule organization” value [1] is on record?
A: nor did they induce visible changes

Q: What about the “basal level of insulin secretion” value [2] of the same compound?
A: did not affect

Q: And the “effect on glucose-stimulated insulin secretion” value [3]?
A: inhibit
